system: HEK293 cells; assay: Preliminary screening as DNA vectors, GFP transfection of HEK293 cells; format: cell-based; details: amino lipid/DOPE liposome with 75 ng plasmid DNA (psin-EGFP-IRES-Puro); number of GFP-expressing cells divided by total nuclei (Hoechst)
Summary of the method: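 HEK293 cells in DMEM/10% FBS transfected with 75 ng EGFP plasmid per well complexed with amino lipid/DOPE liposomes in pH 5.6 sodium acetate. Hoechst nuclear stain added 20-24 h post-transfection, then cells cultured another 20-24 h. Confocal imaging gives GFP-positive cells as % of total nuclei.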

| Compound | Absolute DNA transfection efficiency in HEK293 cells [%] |
| --- | --- |
| CCCCCCCCCCCCCCCCNc1nc(NCCN2CCN(C)CC2)nc(SCCCCCCC)n1 [S7N16 D5] | 18.2 |
| CCCCCCCCCCCCCCCCNc1nc(NCCCN(C)C)nc(SCCCCCCC)n1 [S7N16 D6] | 26.2 |
| CCCCCCCCCCCCCCCCNc1nc(NCCN(CC)CC)nc(SCCCCCCC)n1 [S7N16 D7] | 6.4 |
| CCCCCCCCCCCCCCCCNc1nc(NCCCN2CCOCC2)nc(SCCCCCCC)n1 [S7N16 D8] | 8.1 |
| CCCCCCCCCCCCCCCCNc1nc(NCCCN2CCN(C)CC2)nc(SCCCCCCC)n1 [S7N16 D9] | 12.9 |
| CCCCCCCCCCCCCCCCNc1nc(NCC2CCN(C)CC2)nc(SCCCCCCC)n1 [S7N16 D10] | 15.8 |
| CCCCCCCCCCCCCCCCCCNc1nc(NCCN(C)C)nc(SCCCCCCC)n1 [S7N18 D1] | 10.6 |
| CCCCCCCCCCCCCCCCCCNc1nc(NCCN2CCOCC2)nc(SCCCCCCC)n1 [S7N18 D2] | 16.6 |
| CCCCCCCCCCCCCCCCCCNc1nc(NCCN2CCCC2)nc(SCCCCCCC)n1 [S7N18 D3] | 16.1 |
| CCCCCCCCCCCCCCCCCCNc1nc(NCCN2CCCCC2)nc(SCCCCCCC)n1 [S7N18 D4] | 3.2 |
| CCCCCCCCCCCCCCCCCCNc1nc(NCCN2CCN(C)CC2)nc(SCCCCCCC)n1 [S7N18 D5] | 8.2 |
| CCCCCCCCCCCCCCCCCCNc1nc(NCCCN(C)C)nc(SCCCCCCC)n1 [S7N18 D6] | 18.4 |
| CCCCCCCCCCCCCCCCCCNc1nc(NCCN(CC)CC)nc(SCCCCCCC)n1 [S7N18 D7] | 3.9 |
| CCCCCCCCCCCCCCCCCCNc1nc(NCCCN2CCOCC2)nc(SCCCCCCC)n1 [S7N18 D8] | 5.9 |
| CCCCCCCCCCCCCCCCCCNc1nc(NCCCN2CCN(C)CC2)nc(SCCCCCCC)n1 [S7N18 D9] | 4.2 |
| CCCCCCCCCCCCCCCCCCNc1nc(NCC2CCN(C)CC2)nc(SCCCCCCC)n1 [S7N18 D10] | 16.3 |
| CCCCCCCSc1nc(NCCN(C)C)nc(SCCCCCCC)n1 [S7S7 D1] | 7.9 |
| CCCCCCCSc1nc(NCCN2CCOCC2)nc(SCCCCCCC)n1 [S7S7 D2] | 2.2 |
| CCCCCCCSc1nc(NCCN2CCCC2)nc(SCCCCCCC)n1 [S7S7 D3] | 9.2 |

| Compound | Absolute DNA transfection efficiency in HEK293 cells [%] |
| --- | --- |
| CCCCCCCSc1nc(NCCN2CCCCC2)nc(SCCCCCCC)n1 [S7S7 D4] | 0.0 |
| CCCCCCCSc1nc(NCCN2CCN(C)CC2)nc(SCCCCCCC)n1 [S7S7 D5] | 4.8 |
| CCCCCCCSc1nc(NCCCN(C)C)nc(SCCCCCCC)n1 [S7S7 D6] | 10.3 |
| CCCCCCCSc1nc(NCCN(CC)CC)nc(SCCCCCCC)n1 [S7S7 D7] | 9.3 |
| CCCCCCCSc1nc(NCCCN2CCOCC2)nc(SCCCCCCC)n1 [S7S7 D8] | 0.6 |
| CCCCCCCSc1nc(NCCCN2CCN(C)CC2)nc(SCCCCCCC)n1 [S7S7 D9] | 7.9 |
| CCCCCCCSc1nc(NCC2CCN(C)CC2)nc(SCCCCCCC)n1 [S7S7 D10] | 5.5 |
| CCCCCCCCSc1nc(NCCN(C)C)nc(SCCCCCCC)n1 [S7S8 D1] | 6.7 |
| CCCCCCCCSc1nc(NCCN2CCOCC2)nc(SCCCCCCC)n1 [S7S8 D2] | 0.0 |
| CCCCCCCCSc1nc(NCCN2CCCC2)nc(SCCCCCCC)n1 [S7S8 D3] | 9.2 |
| CCCCCCCCSc1nc(NCCN2CCCCC2)nc(SCCCCCCC)n1 [S7S8 D4] | 7.0 |
| CCCCCCCCSc1nc(NCCN2CCN(C)CC2)nc(SCCCCCCC)n1 [S7S8 D5] | 11.2 |
| CCCCCCCCSc1nc(NCCCN(C)C)nc(SCCCCCCC)n1 [S7S8 D6] | 3.6 |
| CCCCCCCCSc1nc(NCCN(CC)CC)nc(SCCCCCCC)n1 [S7S8 D7] | 5.8 |
| CCCCCCCCSc1nc(NCCCN2CCOCC2)nc(SCCCCCCC)n1 [S7S8 D8] | 3.7 |
| CCCCCCCCSc1nc(NCCCN2CCN(C)CC2)nc(SCCCCCCC)n1 [S7S8 D9] | 10.2 |
| CCCCCCCCSc1nc(NCC2CCN(C)CC2)nc(SCCCCCCC)n1 [S7S8 D10] | 0.0 |
| CCCCCCCCCSc1nc(NCCN(C)C)nc(SCCCCCCC)n1 [S7S9 D1] | 10.8 |
| CCCCCCCCCSc1nc(NCCN2CCOCC2)nc(SCCCCCCC)n1 [S7S9 D2] | 28.8 |

| Compound | Absolute DNA transfection efficiency in HEK293 cells [%] |
| --- | --- |
| CCCCCCCCCSc1nc(NCCN2CCCC2)nc(SCCCCCCC)n1 [S7S9 D3] | 21.5 |
| CCCCCCCCCSc1nc(NCCN2CCCCC2)nc(SCCCCCCC)n1 [S7S9 D4] | 15.1 |
| CCCCCCCCCSc1nc(NCCN2CCN(C)CC2)nc(SCCCCCCC)n1 [S7S9 D5] | 12.5 |
| CCCCCCCCCSc1nc(NCCCN(C)C)nc(SCCCCCCC)n1 [S7S9 D6] | 3.4 |
| CCCCCCCCCSc1nc(NCCN(CC)CC)nc(SCCCCCCC)n1 [S7S9 D7] | 14.5 |
| CCCCCCCCCSc1nc(NCCCN2CCOCC2)nc(SCCCCCCC)n1 [S7S9 D8] | 12.2 |
| CCCCCCCCCSc1nc(NCCCN2CCN(C)CC2)nc(SCCCCCCC)n1 [S7S9 D9] | 17.1 |
| CCCCCCCCCSc1nc(NCC2CCN(C)CC2)nc(SCCCCCCC)n1 [S7S9 D10] | 16.3 |
| CCCCCCCCCCSc1nc(NCCN(C)C)nc(SCCCCCCC)n1 [S7S10 D1] | 21.8 |
| CCCCCCCCCCSc1nc(NCCN2CCOCC2)nc(SCCCCCCC)n1 [S7S10 D2] | 23.6 |
| CCCCCCCCCCSc1nc(NCCN2CCCC2)nc(SCCCCCCC)n1 [S7S10 D3] | 19.4 |
| CCCCCCCCCCSc1nc(NCCN2CCCCC2)nc(SCCCCCCC)n1 [S7S10 D4] | 8.1 |
| CCCCCCCCCCSc1nc(NCCN2CCN(C)CC2)nc(SCCCCCCC)n1 [S7S10 D5] | 10.6 |
| CCCCCCCCCCSc1nc(NCCCN(C)C)nc(SCCCCCCC)n1 [S7S10 D6] | 4.7 |
| CCCCCCCCCCSc1nc(NCCN(CC)CC)nc(SCCCCCCC)n1 [S7S10 D7] | 20.2 |
| CCCCCCCCCCSc1nc(NCCCN2CCOCC2)nc(SCCCCCCC)n1 [S7S10 D8] | 18.0 |
| CCCCCCCCCCSc1nc(NCCCN2CCN(C)CC2)nc(SCCCCCCC)n1 [S7S10 D9] | 23.9 |
| CCCCCCCCCCSc1nc(NCC2CCN(C)CC2)nc(SCCCCCCC)n1 [S7S10 D10] | 25.2 |
| CCCCCCCCCCCSc1nc(NCCN(C)C)nc(SCCCCCCC)n1 [S7S11 D1] | 10.8 |

From patent US20230123334A1, “AMINO LIPID COMPOUND, PREPARATION METHOD THEREFOR, AND APPLICATION THEREOF” (SHENZHEN SHENXIN BIOTECHNOLOGY CO., LTD., priority 2020, published 2023)
